Consider 13 compounds from patent publication US9475812B2, “Pyridonaphthyridine type dual PI3K and mTOR inhibitor and its preparation and use” (Xuanzhu Pharma Co., Ltd., priority 2011, dated 2016).

Data set [1] is described as follows: Pharmacokinetic assay in rat in vivo. Conditions: Sprague-Dawley (SD), plasma, male SD rats; for half-life: read-out: T1/2 (half-life) (converted); for bioavailability: PO(4 mg/kg) vs IV, read-out: F(%) absolute bioavailability. The method, then:
Male SD rats, each test substance, each administration, three rats were used, having a body weight of 200-250 g.
the present compounds: Compound 16, dissolved with 5% NMP+60% PEG400+35% sterile water for injection, other compounds, dissolved with 5% NMP+40% PEG400+55% sterile water for injection.
Blood collection: each of about 100 μL whole blood were collected at 0 h before administration (pre-administration), and at 0.083 h, 0.25 h, 0.5 h, 1 h, 2 h, 4 h, 6 h, 8 h and 24 h after administration. The collected blood samples were centrifuged at 8000 rpm in a high-speed centrifuge for 6 mins to separate the blood plasm. The separated plasm was freezing-preserved at −80° C. in a refrigerator.
Plasm sample analysis: The plasm sample was treated by a liquid-liquid extraction. 20 μL of the plasm was taken, subjected to a vortex at 1500 rpm for 10 mins, and then centrifuged at 12000 rpm for 5 mins. 400 μL of the supernatant was taken and blowed to dryness in the nitrogen gas. The resulting substance is re-dissolved in 200 μL methanol:water (1:1, V/V), and the solution was analyzed with LC-MS/MS.

The next data set has as its system U87MG cells. Description: In vitro cellular inhibitory activity, XTT cell viability, U87MG. The class given is cell-based. As to conditions: Homo sapiens, U-87 MG, 72 hours. The method, then: (§1) 1. Formulating the agents and the compounds: Formulating the PBS, the XTT working liquor, the paclitaxel stock solution and gradient dilute solutions thereof, and the stock solution of test compound and gradient dilute solutions of test compounds.
(§2) 2. Culturing cells: Thawing cells, Passing cells, Freezing and preserving cells.
(§3) Preparing the cell suspension;
(§4) The cell suspension was added to a 96-well plate, 100 μL per well;
(§5) The plate was placed in the incubator and incubated at 37° C. under 5% CO2 overnight.
(§6) Drugs were added to the cell culture plate. The plate was placed in the CO2 incubator and incubated for 72 hours.
(§7) 5. Testing the cell viability with the XTT method
(§8) The XTT working solution was added to the plate. The plate was placed in the CO2 incubator for 2 hours. Then the plate was placed in a microplate reader to read the absorbance at 450 nm.
(§9) 1) % inhibition=(Absorbance (Vehicle)−Absorbance(Compound))/(Absorbance(Vehicle)−Absorbance(positive control)×100%;
(§10) 2) Data were input into GraphPad Prism 5.0 to plot a curve and obtain IC50.
For orientation: Formazan colour is commonly taken as a measure of viable cells.

The target in a further data set is PI3Kα (Homo sapiens, UniProt P42336). Put plainly: PI3Kα enzymology assay (in vitro enzyme inhibition). The class given is biochemical. As to conditions: PI3Kα 1.65 nM, PIP2 50 μM, ATP 25 μM, 60 mins. The method, then: PI3Kα Enzymology Assay Procedures
1. The agent's final concentrations and the compound formulation
1.1 PI3Kα (1.65 nM) kinase solution, substrate PIP2 50 μM, ATP 25 μM;
(§11) 1.2 4 folds kinase solution, 2 folds substrate and ATP solution;
(§12) 1.3 test compound 1 mM stock solution (final concentration 100 folds of DMSO solution).
(§13) 2.1 test compound 1 mM, diluted with DMSO 4 folds gradient, and then diluted with kinase buffer 25 folds;
(§14) 2.2 To each well in a 384-well plate was added 2.5 μL series diluted compounds;
2.3 To each well was added 2.5 μL 4 folds kinase solution;
(§15) 2.4 To each well was added 2.5 μL substrate/ATP solution;
(§16) 2.5 incubated for 60 mins;
2.6 Envision data reading: Lance signal ([…]).
The inhibition ratio %=(sample RLU−min)/(max−min)×100
wherein “max” is the control without the kinase; “min” is the DMSO control containing the enzyme but not containing the compound.
Data were input into GraphPad Prism 5.0 to plot a curve and obtain IC50.

The next data set deals with mTOR (Homo sapiens, UniProt P42345). Description: mTOR enzymology assay (in vitro enzyme inhibition, ULight-4E-BP1 peptide, Lance signal). Type of data set: biochemical. As to conditions: mTOR 2.5 nM, ULight-4E-BP1 peptide 50 nM, ATP 10.8 uM, 60 mins. The method, then:
mTOR Enzymology Assay Procedures
1. The agent's final concentrations and the compound solution preparation
1.1 mTOR (2.5 nM) kinase solution, substrate ULight-4E-BP1 peptide 50 nM, ATP 10.8 uM;
as §11, §12, §13, §14
2.3 To each well was added 2.5 μL 4 fold kinase solution;
as §15, §16
2.6 Envision data reading Lance signal (665 nM).
The inhibition ratio %=(Lance signal−min)/(max−min)×100
wherein “max” is the DMSO control containing the enzyme but not containing the compound; “min” is the control without the kinase.
Input the data into GraphPad Prism5.0 to plot a curve and obtain IC50.

The subject of the next data set is A549 cells. Put plainly: In vitro cellular inhibitory activity, XTT cell viability, A549. The class given is cell-based. Conditions: Homo sapiens, 72 hours. The method, then:
as §1, §2, §3, §4, §5, §6, §7, §8, §9, §10

Where [2] appears, read: IV(2 mg/kg), dosage in Table 3 (Compound 16: 0.45 mg/kg).

Read-outs that look alike come from different tables or passages of the source.

Sequence of PI3Kα (P42336 whole entry): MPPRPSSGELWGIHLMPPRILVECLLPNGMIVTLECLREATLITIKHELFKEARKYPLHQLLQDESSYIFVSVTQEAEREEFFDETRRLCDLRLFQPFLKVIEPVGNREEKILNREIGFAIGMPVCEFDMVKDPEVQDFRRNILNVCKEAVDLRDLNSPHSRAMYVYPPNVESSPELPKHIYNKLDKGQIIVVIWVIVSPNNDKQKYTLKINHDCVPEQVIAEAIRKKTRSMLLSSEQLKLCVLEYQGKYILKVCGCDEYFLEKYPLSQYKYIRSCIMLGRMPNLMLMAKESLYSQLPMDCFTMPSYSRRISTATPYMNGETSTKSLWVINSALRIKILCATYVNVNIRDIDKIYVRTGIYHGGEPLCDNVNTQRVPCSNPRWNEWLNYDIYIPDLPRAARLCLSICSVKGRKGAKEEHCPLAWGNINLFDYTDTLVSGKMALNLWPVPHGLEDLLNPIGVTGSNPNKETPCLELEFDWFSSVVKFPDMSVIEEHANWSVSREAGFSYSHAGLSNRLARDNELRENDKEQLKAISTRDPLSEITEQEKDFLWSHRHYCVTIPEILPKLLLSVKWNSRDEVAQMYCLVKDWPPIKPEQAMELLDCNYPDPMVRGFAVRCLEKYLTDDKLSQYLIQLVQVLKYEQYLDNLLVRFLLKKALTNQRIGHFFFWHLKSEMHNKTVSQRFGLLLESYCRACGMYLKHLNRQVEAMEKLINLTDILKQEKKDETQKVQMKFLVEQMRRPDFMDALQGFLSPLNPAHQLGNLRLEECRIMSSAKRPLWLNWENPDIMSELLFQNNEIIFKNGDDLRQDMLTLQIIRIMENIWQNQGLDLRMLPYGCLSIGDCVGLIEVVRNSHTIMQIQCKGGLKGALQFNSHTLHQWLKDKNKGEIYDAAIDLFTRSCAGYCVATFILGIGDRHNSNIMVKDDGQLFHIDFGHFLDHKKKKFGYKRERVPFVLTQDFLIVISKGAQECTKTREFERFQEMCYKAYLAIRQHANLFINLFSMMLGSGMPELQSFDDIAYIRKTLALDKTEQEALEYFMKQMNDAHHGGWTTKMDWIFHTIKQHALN
Sequence of PI3Kα (P27986 whole entry partner): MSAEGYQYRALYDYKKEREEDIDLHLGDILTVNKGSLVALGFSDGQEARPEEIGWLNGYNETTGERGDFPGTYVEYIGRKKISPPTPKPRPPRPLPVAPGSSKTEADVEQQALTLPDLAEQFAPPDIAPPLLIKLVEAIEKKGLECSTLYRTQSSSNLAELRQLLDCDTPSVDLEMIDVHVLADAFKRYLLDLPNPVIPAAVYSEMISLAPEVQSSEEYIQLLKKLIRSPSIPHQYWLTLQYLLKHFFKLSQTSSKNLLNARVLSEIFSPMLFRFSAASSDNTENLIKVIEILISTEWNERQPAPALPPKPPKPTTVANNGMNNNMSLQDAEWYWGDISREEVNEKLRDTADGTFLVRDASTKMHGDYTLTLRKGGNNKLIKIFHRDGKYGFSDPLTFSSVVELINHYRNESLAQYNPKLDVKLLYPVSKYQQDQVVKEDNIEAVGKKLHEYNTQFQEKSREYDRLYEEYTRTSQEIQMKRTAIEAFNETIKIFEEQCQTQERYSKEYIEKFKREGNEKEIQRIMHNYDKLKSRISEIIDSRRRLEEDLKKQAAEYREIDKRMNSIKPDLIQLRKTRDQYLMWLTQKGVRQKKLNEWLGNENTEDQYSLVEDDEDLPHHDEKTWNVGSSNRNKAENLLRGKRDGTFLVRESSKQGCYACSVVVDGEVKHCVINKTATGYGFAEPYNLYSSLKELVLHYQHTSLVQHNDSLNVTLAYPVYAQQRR

As a reminder, the AUC(0-t) is exposure summed from dosing to a finite time, without extrapolation to infinity. Higher therefore signals high exposure. For orientation: bioavailability means the share of a dose that reaches the circulation, judged against a reference dose that is usually intravenous. Broadly, the IC50 is the concentration that gives 50% inhibition. A higher IC50 goes with weaker potency in that assay. Take `Nc1ccc(-c2ccc3ncc4ccc(=O)n(-c5cccc(C(F)(F)F)c5)c4c3n2)cn1` [Compound 1, 2-(6-aminopyridin-3-yl)-10-(3-(trifluoromethyl)phenyl)pyrido[3,2-c][1,5]naphthyridin-9(10H)-one]: the AUC(0-t) was 1310 ng·h/mL in data set [1] (setting [2]) and 1030 ng·h/mL in data set [1] (PO(4 mg/kg), intragastric). For the same compound, the half-life is 1.79 h in data set [1] (setting [2]) and 2.78 h in data set [1] (PO(4 mg/kg), intragastric). In data set [1], the bioavailability is 43.7%. The IC50 with U87MG cells turned out to be 8.9 nM; on PI3Kα, 3.2 nM; against mTOR, 0.87 nM; with A549 cells it was 11.9 nM.

Compound `CC(C)(C#N)c1ccc(-n2c(=O)ccc3cnc4ccc(-c5ccc(N)nc5)nc4c32)cc1` [Compound 7, 2-(4-(2-(6-aminopyridin-3-yl)-9-oxopyrido[3,2-c][1,5]naphthyridin-10(9H)-yl)phenyl)-2-methylpropanenitrile] yielded an IC50 in the data set on U87MG cells of 29.3 nM.

In the case of `Nc1ncc(-c2ccc3ncc4ccc(=O)n(-c5cccc(C(F)(F)F)c5)c4c3n2)cn1` [Compound 13, 2-(2-aminopyrimidin-5-yl)-10-(3-(trifluoromethyl)phenyl)pyrido[3,2-c][1,5]naphthyridin-9(10H)-one], the exposure AUC(0-t) in data set [1] (setting [2]) came to 711 ng·h/mL; in data set [1] (PO(4 mg/kg), intragastric), 707 ng·h/mL. Further, the half-life in data set [1] (setting [2]) was 0.62 h; in data set [1] (PO(4 mg/kg), intragastric), 1.44 h. Also, the bioavailability in data set [1] was 49%. Also, the IC50 was found to be 26.4 nM in the data set on U87MG cells, 2.4 nM on PI3Kα and 0.47 nM at mTOR.

Consider `COc1ncc(-c2ccc3ncc4ccc(=O)n(-c5cccc(C(F)(F)F)c5)c4c3n2)cn1` [Compound 14, 2-(2-methoxypyrimidin-5-yl)-10-(3-(trifluoromethyl)phenyl)pyrido[3,2-c][1,5]naphthyridin-9(10H)-one], for which the bioavailability in data set [1] was 42.3%. In addition, in data set [1] (PO(4 mg/kg), intragastric), the AUC(0-t) was 445 ng·h/mL and the half-life was 3.49 h. The compound also displayed a half-inhibitory concentration (IC50) against PI3Kα of 8.8 nM. At mTOR, the 50% inhibitory concentration (IC50) was found to be 4.4 nM.

On to `CC(=O)Nc1ccc(-c2ccc3ncc4ccc(=O)n(-c5cccc(C(F)(F)F)c5)c4c3n2)cn1` [Compound 15, N-(5-(9-oxo-10-(3-(trifluoromethyl)phenyl)-9,10-dihydropyrido[3,2-c][1,5]naphthyridin-2-yl)pyridin-2-yl)acetamide], for which the AUC(0-t) stood at 441 ng·h/mL in data set [1] (setting [2]) and 550 ng·h/mL in data set [1] (PO(4 mg/kg), intragastric). Further, the half-life in data set [1] (setting [2]) is 0.71 h; in data set [1] (PO(4 mg/kg), intragastric), 2.36 h. For the same compound, in data set [1], the bioavailability came out at 65%. For the same compound, the IC50 in the data set on U87MG cells turned out to be 12.7 nM; against PI3Kα, 6.1 nM; on mTOR, 3 nM; with A549 cells, 20.2 nM.

On to `N#Cc1ccc(-c2ccc3ncc4ccc(=O)n(-c5cccc(C(F)(F)F)c5)c4c3n2)cn1` [Compound 16, 5-(9-oxo-10-(3-(trifluoromethyl)phenyl)-9,10-dihydropyrido[3,2-c][1,5]naphthyridin-2-yl)-2-cyanopyridine], for which the AUC(0-t) stood at 195 ng·h/mL in data set [1] (setting [2]) and 410 ng·h/mL in data set [1] (PO(4 mg/kg), intragastric). The half-life in data set [1] (setting [2]) is 1.52 h; in data set [1] (PO(4 mg/kg), intragastric) it was 1.67 h. Further, the bioavailability in data set [1] amounted to 23%. Besides, the IC50 at PI3Kα was 58 nM; against mTOR, 8.7 nM.

On to `O=c1ccc2cnc3ccc(-c4c[nH]c5ncccc45)nc3c2n1-c1cccc(C(F)(F)F)c1` [Compound 17, 2-(1H-pyrrolo[2,3-b]pyridin-3-yl)-10-(3-(trifluoromethyl)phenyl)pyrido[3,2-c][1,5]naphthyridin-9(10H)-one], for which the AUC(0-t) is 723 ng·h/mL in data set [1] (setting [2]) and 212 ng·h/mL in data set [1] (PO(4 mg/kg), intragastric). Further, the half-life is 0.61 h in data set [1] (setting [2]) and 5.68 h in data set [1] (PO(4 mg/kg), intragastric). In addition, in data set [1], the bioavailability came out at 20.8%. The 50% inhibitory concentration (IC50) against PI3Kα was 45 nM; on mTOR, 5.3 nM.

With `O=c1ccc2cnc3ccc(-c4ccc(CO)nc4)nc3c2n1-c1cccc(C(F)(F)F)c1` [Compound 18, 2-(6-(hydroxymethyl)pyridin-3-yl)-10-(3-(trifluoromethyl)phenyl)pyrido[3,2-c][1,5]naphthyridin-9(10H)-one], the IC50 was 3.6 nM at PI3Kα and 2.6 nM against mTOR.

For `CN1CCN(c2ccc(-c3ccc4ncc5ccc(=O)n(-c6cccc(C(F)(F)F)c6)c5c4n3)cn2)CC1` [Compound 19, 2-(6-(4-methylpiperazin-1-yl)pyridin-3-yl)-10-(3-(trifluoromethyl)phenyl)pyrido[3,2-c][1,5]naphthyridin-9(10H)-one], the IC50 at PI3Kα came to 158 nM; against mTOR it was 2.3 nM.

For the compound `O=c1ccc2cnc3ccc(-c4ccc(-n5cccn5)nc4)nc3c2n1-c1cccc(C(F)(F)F)c1` [Compound 20, 2-(6-(1H-pyrazol-1-yl)pyridin-3-yl)-10-(3-(trifluoromethyl)phenyl)pyrido[3,2-c][1,5]naphthyridin-9(10H)-one], the IC50 against PI3Kα was 104 nM; on mTOR, 6 nM.

With `CSc1ccc(-c2ccc3ncc4ccc(=O)n(-c5cccc(C(F)(F)F)c5)c4c3n2)cn1` [Compound 38, 2-(6-(methylthio)pyridin-3-yl)-10-(3-(trifluoromethyl)phenyl)pyrido[3,2-c][1,5]naphthyridin-9(10H)-one], the IC50 against PI3Kα was 17 nM; against mTOR, 5 nM.

On to `O=c1ccc2cnc3ccc(-c4cnc5[nH]ccc5c4)nc3c2n1-c1cccc(C(F)(F)F)c1` [Compound 39, 2-(1H-pyrrolo[2,3-b]pyridin-5-yl)-10-(3-(trifluoromethyl)phenyl)pyrido[3,2-c][1,5]naphthyridin-9(10H)-one], for which the IC50 in the data set with U87MG cells is 8.4 nM; on PI3Kα it was 2.5 nM; against mTOR, 0.89 nM; in the data set with A549 cells, 6.8 nM.

On to `Nc1ccc(-c2ccc3ncc4ccc(=O)n(-c5cccc(C(F)(F)F)c5)c4c3c2)cn1` [Torin-2, 9-(6-Aminopyridin-3-yl)-1-(3-(trifluoromethyl)phenyl)benzo[h][1,6]naphthyridin-2(1H)-one, reference compound], for which the AUC(0-t) in data set [1] (setting [2]) stood at 259 ng·h/mL; in data set [1] (PO(4 mg/kg), intragastric), 104 ng·h/mL. Further, in data set [1], the bioavailability was 22.6%. Also, the IC50 with U87MG cells is 12.4 nM; with A549 cells it was 14.7 nM.
